Values of other authors, collected in patent publication US9877930B2, “Topical ubiquinol oral supplement compositions with amorphous calcium phosphate” (Premier Dental Products Company, priority 2012, dated 2018).

Assays:
[1] = system: human monocytic celline THP-1; conditions: LPS-stimulated THP-1
[2] = 150 mg per day in a softgel, orally, within 28 days
[3] = system: periodontal disease; conditions: 150 mg capsule/day for two months
[4] = not given; remark: listed apart in the source
[5] = system: adult periodontitis; conditions: topical once weekly via syringe for six weeks, with mechanical debridement; sites that bled at day 0

SMILES | time required to reach peak concentration (absorption from the gastrointestinal tract) | time to steady-state concentrations (oral treatment) | effect on inflammatory cytokines and chemokines in vitro [1] | peak blood values [2] | effect on oral environment for periodontal disease [3] | water solubility [4] | bleeding on probing at treated sites [5]
COc1c(O)c(C)c(C/C=C(\C)CC/C=C(\C)CC/C=C(\C)CC/C=C(\C)CC/C=C(\C)CC/C=C(\C)CC/C=C(\C)CC/C=C(\C)CC/C=C(\C)CCC=C(C)C)c(O)c1OC [UBIQUINOL] | approximately 6 hours | within two weeks | anti-inflammatory effects | 3.84 µg/mL | effective in improving oral environment for periodontal disease | less than 0.1 mg/ml | –
COC1=C(OC)C(=O)C(C/C=C(\C)CC/C=C(\C)CC/C=C(\C)CC/C=C(\C)CC/C=C(\C)CC/C=C(\C)CC/C=C(\C)CC/C=C(\C)CC/C=C(\C)CCC=C(C)C)=C(C)C1=O [CoQ10, ubiquinone] | – | – | – | – | – | – | no bleeding at six weeks
